Experimental data published in patent US20170334899A1, “AMINO-SUBSTITUTED ISOTHIAZOLES” (Bayer Pharma Aktiengesellschaft, priority 2014, published 2017).

Columns and labels:
[1] = system: human cervical tumor cell line HeLa (ATCC CCL-2); experiment: SAC-Formation - Nocodazole-Induced Assay; assay type: cell-based; conditions: Homo sapiens, HeLa, 24 h, HeLa cells, nocodazole 0.1 μg/ml together with test compound, decrease of mitotic cells (phospho-histone H3 Ser10)
How it was run: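 HeLa cells, plated overnight, were treated 24 h at 37 °C with nocodazole (0.1 μg/ml final) plus test compound (0.005–20 μM, 0.5% DMSO) added at the same time. After fixation, anti-phospho-histone H3 Ser10 and Hoechst staining gave the mitotic cell fraction by imaging. Values came from four-parameter Hill fits.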

[2] = system: human cervical tumor cell line HeLa (ATCC CCL-2); experiment: SAC-Formation - Paclitaxel-Induced Assay; assay type: cell-based; conditions: Homo sapiens, HeLa, 24 h, HeLa cells, paclitaxel 0.05 μM, test range 0.005 μM-20 μM, read-out: IC50 [mol/l] SAC-Formation - Paclitaxel-Induced Assay
How it was run: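 HeLa cells incubated overnight at 37° C, then given paclitaxel (0.05 μM final) plus test compound (0.005–20 μM, 0.5% DMSO) together for 24 h at 37° C. Fixed cells stained for phospho-histone H3 Ser10 (mitotic cells) and Hoechst 33342 (cell count); imaging-derived mitotic index fitted by four-parameter Hill equation.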

SMILES | IC50 [1] | IC50 [2]
CCN1CC[C@H](Oc2ccc(NC(=O)c3c(C)nsc3Nc3cnc(C(F)(F)F)cn3)cn2)[C@H](F)C1 [Example 424, N-(6-{[(3R,4S)-1-Ethyl-3-fluoropiperidin-4-yl]oxy}pyridin-3-yl)-3-methyl-5-{[5-(trifluoromethyl)pyrazin-2-yl]amino}-1,2-thiazole-4-carboxamide] | 74 nM | 320 nM
Cc1nsc(Nc2cnc(C(F)(F)F)cn2)c1C(=O)Nc1ccc(OCCNC(=O)C(F)(F)F)nc1 [Example 425, 3-Methyl-N-(6-{2-[(trifluoroacetyl)amino]ethoxy}pyridin-3-yl)-5-{[5-(trifluoro-methyl)pyrazin-2-yl]amino}-1,2-thiazole-4-carboxamide] | 720 nM | 350 nM
Cc1nsc(Nc2cnc(C(F)(F)F)cn2)c1C(=O)Nc1ccc(OCCCNC(=O)C(F)(F)F)nc1 [Example 428, 3-Methyl-N-(6-{3-[(trifluoroacetyl)amino]propoxy}pyridin-3-yl)-5-{[5-(trifluoro-methyl)pyrazin-2-yl]amino}-1,2-thiazole-4-carboxamide] | 890 nM | 620 nM
Cc1nsc(Nc2cnc(C(F)(F)F)cn2)c1C(=O)Nc1ccc(OCCN(C)C(=O)OC(C)(C)C)nc1 [Example 429, tert-Butyl methyl{2-[(5-{[(3-methyl-5-{[5-(trifluoromethyl)pyrazin-2-yl]amino}-1,2-thiazol-4-yl)carbonyl]amino}pyridin-2-yl)oxy]ethyl}carbannate] | 16 nM | 260 nM
Cc1nsc(Nc2cncc(C(F)(F)F)n2)c1C(=O)Nc1ccc(OCCN(C)C(=O)OC(C)(C)C)nc1 [Example 430, tert-Butyl methyl{2-[(5-{[(3-methyl-5-{[6-(trifluoromethyl)pyrazin-2-yl]amino}-1,2-thiazol-4-yl)carbonyl]amino}pyridin-2-yl)oxy]ethyl}carbannate] | 11 nM | 45 nM
Cc1nsc(Nc2cnc3ccccc3n2)c1C(=O)Nc1cccc(NC(=O)C(F)(F)F)c1 [Example 432, 3-Methyl-5-(quinoxalin-2-ylamino)-N-{3-[(trifluoroacetyl)amino]phenyl}-1,2-thiazole-4-carboxamide] | 170 nM | 1200 nM
Cc1nsc(Nc2ccc(C#N)cn2)c1C(=O)Nc1ccc(Nc2ccc(F)c(F)c2)nc1 [Example 433, 5-[(5-Cyanopyridin-2-yl)amino]-N-{6-[(3,4-difluorophenyl)amino]pyridin-3-yl}-3-methyl-1,2-thiazole-4-carboxamide] | 210 nM | 1300 nM
Cc1nsc(Nc2cnc3ccccc3n2)c1C(=O)Nc1ccc(NCCN(C)C(=O)OC(C)(C)C)nc1 [Example 434, tert-Butyl methyl(2-{[5-({[3-methyl-5-(quinoxalin-2-ylamino)-1,2-thiazol-4-yl]carbonyl}amino)pyridin-2-yl]amino}ethyl)carbamate] | 970 nM | 3500 nM
CC(=O)Nc1ccc(NC(=O)c2c(C)nsc2Nc2ccc(C#N)cn2)cn1 [Example 435, N-(6-Acetamidopyridin-3-yl)-5-[(5-cyanopyridin-2-yl)amino]-3-methyl-1,2-thiazole-4-carboxamide] | 12000 nM | 20000 nM

Next, values leading:

IC50 [1] | IC50 [2] | SMILES
210 nM | 140 nM | Cc1nsc(Nc2cnc(C(F)(F)F)cn2)c1C(=O)Nc1ccc(F)c(OC[C@H]2CCCN(CCC(F)(F)F)C2)c1 [Example 418, N-(4-Fluoro-3-{[(3S)-1-(3,3,3-trifluoropropyl)piperidin-3-yl]methoxy}phenyl)-3-methyl-5-{[5-(trifluoromethyl)pyrazin-2-yl]amino}-1,2-thiazole-4-carboxamide]
38 nM | 130 nM | Cc1nsc(Nc2cnc(C(F)(F)F)cn2)c1C(=O)Nc1ccc(F)c(OC[C@H]2CCCN(CC(F)(F)F)C2)c1 [Example 419, N-(4-Fluoro-3-{[(3S)-1-(2,2,2-trifluoroethyl)piperidin-3-yl]methoxy}phenyl)-3-methyl-5-{[5-(trifluoromethyl)pyrazin-2-yl]amino}-1,2-thiazole-4-carboxamide]
120 nM | 240 nM | Cc1nsc(Nc2cnc(C(F)(F)F)cn2)c1C(=O)Nc1ccc(CCC2CCN(CCC(F)(F)F)CC2)nc1 [Example 420, 3-Methyl-5-{[5-(trifluoromethyl)pyrazin-2-yl]amino}-N-(6-{2-[1-(3,3,3-trifluoro-propyl)piperidin-4-yl]ethyl}pyridin-3-yl)-1,2-thiazole-4-carboxamide]
700 nM | 920 nM | Cc1nsc(Nc2cnc(C(F)(F)F)cn2)c1C(=O)Nc1ccc(F)c(OCCCNC(=O)C(F)(F)F)c1 [Example 427, N-(4-Fluoro-3-{3-[(trifluoroacetyl)amino]propoxy}phenyl)-3-methyl-5-{[5-(trifluoro-methyl)pyrazin-2-yl]amino}-1,2-thiazole-4-carboxamide]
10000 nM | 10000 nM | Cc1nsc(Nc2cnc(C(F)(F)F)cn2)c1C(=O)Nc1ccc(OC2CCNCC2)c(F)c1 [Example 431, N-[3-Fluoro-4-(piperidin-4-yloxy)phenyl]-3-methyl-5-{[5-(trifluoromethyl)pyrazin-2-yl]amino}-1,2-thiazole-4-carboxamide]
